Reference: patent US20170348306A1, “METHODS OF TREATING CANCER” (GLAXOSMITHKLINE LLC, priority 2011, published 2017)
Read-outs that look alike come from different tables or passages of the source.

Columns and labels:
[1] = system: B-cell lymphoma cell lines; experiment: Cell proliferation assay (6 days, CellTiter-Glo), panel; type: cell-based; conditions: Homo sapiens, 144 h, read-out: growth IC50
Excerpt: Thus, Example 22 and Table 6 better reflect the inhibition of HZH2 inhibitors on cell lines, e.g. the lymphoma cell lines. DLBCL cell lines were the most sensitive to EZH2 inhibition (FIG. 11a). […] Evaluation of GSK126 in additional lymphoma cell lines and extensive genomic and epigenomic characterization will be required to fully elucidate the determinants of sensitivity among lymphoma subtypes.
Biochemical assays utilized the 5-member PRC2 complex (human Flag-EZH2, EED, SUZ12, AEBP2, RbAp48) containing either WT or mutant EZH2, [^3H-]SAM and the indicated peptide substrate; reactions were incubated for 30 minutes. Global histone modification levels were determined by ELISA or western blot methods using antibodies specific for total histone H3, H3K27me1, H3K27me2, or H3K27me3. Cell proliferation and Caspase-3/7 activity were assessed using CellTiter-Glo and Caspase-Glo 3/7 (Promega), respectively. Gene expression profiling was conducted using Affymetrix Human Genome U133 Plus 2.0 microarrays. Differentially-expressed probe sets were determined by fitting the data to a linear model using the limma statistical package (http://www.bioconductor.org) and carrying out pair-wise contrasts of treated versus control. […] H3K27me3 ChIP reads were aligned using Bowtie (56). […] A custom PERL script was utilized to quantify the average basal H3K27me3 ChIP-seq tag density across gene sets. […]

[2] = biological target: T1, EZH2 (Homo sapiens, UniProt Q15910); experiment: Mechanism of GSK126 inhibition of EZH2 (IC50 at varied SAM and peptide); type: biochemical; conditions: SAM 0.1-15 μM; peptide 16-60 μM
T1 construct: TEV site (FLAG-tev-EZH2) (N); made in house; host or cells: Sf9 insect cells (baculovirus)
T1 sequence (Q15910 whole entry): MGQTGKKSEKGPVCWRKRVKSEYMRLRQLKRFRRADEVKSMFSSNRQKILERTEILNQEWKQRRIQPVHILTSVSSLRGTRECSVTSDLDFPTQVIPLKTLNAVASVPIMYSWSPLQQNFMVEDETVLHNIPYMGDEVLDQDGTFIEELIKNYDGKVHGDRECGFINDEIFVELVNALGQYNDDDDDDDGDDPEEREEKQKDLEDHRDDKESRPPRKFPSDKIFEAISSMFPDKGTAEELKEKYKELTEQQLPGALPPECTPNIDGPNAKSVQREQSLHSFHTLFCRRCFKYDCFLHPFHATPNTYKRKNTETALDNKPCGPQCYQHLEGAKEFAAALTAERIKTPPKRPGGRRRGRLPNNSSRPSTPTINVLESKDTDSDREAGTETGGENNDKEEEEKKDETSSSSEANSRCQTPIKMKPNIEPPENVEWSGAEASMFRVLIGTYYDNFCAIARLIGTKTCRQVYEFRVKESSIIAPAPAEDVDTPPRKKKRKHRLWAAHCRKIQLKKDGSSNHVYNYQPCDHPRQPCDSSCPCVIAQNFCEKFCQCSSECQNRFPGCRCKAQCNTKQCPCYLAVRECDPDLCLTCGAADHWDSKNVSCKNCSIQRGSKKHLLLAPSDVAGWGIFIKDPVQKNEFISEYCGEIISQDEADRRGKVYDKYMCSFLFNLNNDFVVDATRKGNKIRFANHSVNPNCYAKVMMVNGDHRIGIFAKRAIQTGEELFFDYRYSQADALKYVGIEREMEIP
T1 sequence (O75530 whole entry partner): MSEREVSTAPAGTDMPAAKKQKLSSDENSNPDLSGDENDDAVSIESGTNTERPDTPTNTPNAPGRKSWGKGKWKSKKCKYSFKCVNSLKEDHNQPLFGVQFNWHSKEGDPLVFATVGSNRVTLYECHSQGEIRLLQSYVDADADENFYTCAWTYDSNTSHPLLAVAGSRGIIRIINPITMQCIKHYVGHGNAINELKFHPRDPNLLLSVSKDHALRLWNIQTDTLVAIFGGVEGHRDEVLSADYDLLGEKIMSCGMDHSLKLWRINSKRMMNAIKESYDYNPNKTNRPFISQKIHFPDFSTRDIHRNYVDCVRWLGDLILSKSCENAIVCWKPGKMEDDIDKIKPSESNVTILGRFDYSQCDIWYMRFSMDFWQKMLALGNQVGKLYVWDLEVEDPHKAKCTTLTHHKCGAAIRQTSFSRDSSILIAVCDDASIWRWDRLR
T1 sequence (Q15022 whole entry partner): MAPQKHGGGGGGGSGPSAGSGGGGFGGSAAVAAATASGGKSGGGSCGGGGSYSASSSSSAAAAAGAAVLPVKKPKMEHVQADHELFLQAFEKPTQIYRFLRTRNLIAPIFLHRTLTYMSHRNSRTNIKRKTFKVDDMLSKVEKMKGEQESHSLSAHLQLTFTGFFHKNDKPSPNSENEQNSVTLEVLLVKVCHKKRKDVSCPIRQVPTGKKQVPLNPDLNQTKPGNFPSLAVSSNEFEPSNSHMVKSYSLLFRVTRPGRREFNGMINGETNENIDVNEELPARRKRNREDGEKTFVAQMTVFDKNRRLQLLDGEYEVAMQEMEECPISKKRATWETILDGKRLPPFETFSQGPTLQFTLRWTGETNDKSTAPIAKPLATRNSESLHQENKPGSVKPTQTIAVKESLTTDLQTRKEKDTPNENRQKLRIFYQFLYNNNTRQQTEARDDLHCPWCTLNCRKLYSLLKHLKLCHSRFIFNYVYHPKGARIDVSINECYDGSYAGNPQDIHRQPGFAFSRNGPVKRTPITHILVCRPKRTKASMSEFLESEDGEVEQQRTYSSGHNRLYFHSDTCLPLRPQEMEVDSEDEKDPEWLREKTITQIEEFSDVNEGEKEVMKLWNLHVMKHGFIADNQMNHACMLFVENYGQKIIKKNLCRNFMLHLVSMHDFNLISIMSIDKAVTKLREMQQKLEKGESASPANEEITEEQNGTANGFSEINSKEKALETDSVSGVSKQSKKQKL
T1 sequence (Q09028 whole entry partner): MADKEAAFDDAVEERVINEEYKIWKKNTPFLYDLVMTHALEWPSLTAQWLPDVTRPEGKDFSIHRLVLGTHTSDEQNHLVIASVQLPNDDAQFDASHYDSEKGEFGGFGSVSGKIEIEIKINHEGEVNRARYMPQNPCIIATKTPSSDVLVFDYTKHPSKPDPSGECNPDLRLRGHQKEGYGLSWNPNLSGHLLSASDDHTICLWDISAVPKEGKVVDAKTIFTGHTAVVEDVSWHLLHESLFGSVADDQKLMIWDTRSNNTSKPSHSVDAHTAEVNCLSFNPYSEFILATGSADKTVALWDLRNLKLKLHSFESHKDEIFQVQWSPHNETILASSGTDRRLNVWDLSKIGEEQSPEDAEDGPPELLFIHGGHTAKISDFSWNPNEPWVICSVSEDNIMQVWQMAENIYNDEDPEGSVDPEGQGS
T1 sequence (Q6ZN18 1-503 partner limits assumed): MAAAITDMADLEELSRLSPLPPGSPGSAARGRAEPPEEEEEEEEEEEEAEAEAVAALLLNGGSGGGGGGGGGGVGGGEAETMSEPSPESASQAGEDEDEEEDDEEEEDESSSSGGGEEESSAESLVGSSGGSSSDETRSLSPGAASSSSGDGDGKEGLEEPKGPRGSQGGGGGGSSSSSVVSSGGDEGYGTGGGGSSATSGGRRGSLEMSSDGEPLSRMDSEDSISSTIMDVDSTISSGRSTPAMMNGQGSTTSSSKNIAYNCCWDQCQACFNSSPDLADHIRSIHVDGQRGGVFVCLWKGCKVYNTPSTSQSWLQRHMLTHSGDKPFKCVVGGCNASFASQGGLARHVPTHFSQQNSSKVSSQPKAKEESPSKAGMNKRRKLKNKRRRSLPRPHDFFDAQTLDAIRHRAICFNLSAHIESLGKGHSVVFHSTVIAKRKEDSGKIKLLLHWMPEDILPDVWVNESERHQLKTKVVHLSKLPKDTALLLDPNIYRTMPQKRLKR
Excerpt: The resulting IC50 values were plotted against the [SAM]/Km ratio or the [peptide]/Km ratio respectively.

[3] = Complete blood count analysis of peripheral blood; type: in vivo; conditions: immunocompetent CD-1 mice; twice weekly dosing over 18 days
Method: All studies were conducted after review by the Institutional Animal Care and Use Committee at GSK and in accordance with the GSK Policy on the Care, Welfare and Treatment of Laboratory Animals. […] Pfeiffer or KARPAS-422 cells (1×10^7) in 100% matrigel (BD Biosciences) were implanted subcutaneously in female beige SCID mice. Tumors were measured with calipers, block randomized according to tumor size into treatment groups. […] Mice were weighed and tumors measured with calipers twice weekly. For mouse pharmacokinetic studies, tumor and blood samples were harvested from euthanized mice at the indicated time. […] For pharmacodynamic studies, a portion of each tumor was frozen for H3K27me3/H3 ELISAs or placed in RNAlater (Ambion) for RNA isolation. For peripheral blood analyses, blood was harvested via cardiac puncture from euthanized, immunocompetent CD-1 mice (3 mice/group) on day 18. Blood was immediately placed into a Microtainer EDTA tube (BD) and gently mixed by inverting. A complete blood count analysis was conducted using the Advia 2120 hematology analyzer (Siemens Medical Solutions) using multi-species software as per manufacturer's instructions.

CC[C@H](C)n1cc(C)c2c(C(=O)NCc3c(C)cc(C)[nH]c3=O)cc(-c3ccc(N4CCNCC4)nc3)cc21 [GSK126]
IC50 ([1]; Burkitt (BL) and Hodgkin's (HL) lymphoma cell lines, with the exception of Jiyoye): > 1300 nM
IC50 ([1]; B-cell, six of the seven most sensitive DLBCL cell lines, harboring Y641N, Y641F, or A677G EZH2 mutations): 28 to 861 nM
mechanism of inhibition [2]: competitive with SAM and non-competitive with peptide substrates
complete blood count, blood cell types [3]: no significant changes
